IC50 data for 10 compounds are collected here from patent US20210038607A1, “OXADIAZOLYLTHIOPHENE DERIVATIVES USEFUL AS HISTONE DEACETYLASE INHIBITORS” (Karus Therapeutics Limited, priority 2018, published 2021).

Molecules are shown by their SMILES. Where only a bound is given, the exact number is not on record here.

One assay has as its target T1, Human HDAC1 (Homo sapiens, UniProt Q13547).
T1 construct: full length with C-terminal His-tag and C-terminal FLAG-tag; His (C); FLAG (C); host or cells: baculovirus expression system
The experiment in a line: HDAC1 biochemical assay, AMC-labeled peptide substrate. To be noted: read-out: HDAC Isoform IC50 (nM) 1. The procedure, abridged:
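Two-step fluorogenic read: HDAC1 deacetylates 50 μM acetyl-lysine AMC peptide RHKK(Ac)AMC for 1 h at 30° C (pH 8.0, 1% DMSO, with compound), then developer digests the product for fluorescence at Ex/Em 360/460. Enzyme is full-length human, His/FLAG-tagged, insect-cell expressed, at 0.3 ng/ul.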

In a further assay the target is T2, Human HDAC4 (Homo sapiens, UniProt P56524).
T2 construct: amino acids 627-1085 with N-terminal GST tag; GST (N); host or cells: baculovirus expression system
T2 sequence (P56524 627-1084 limits assumed): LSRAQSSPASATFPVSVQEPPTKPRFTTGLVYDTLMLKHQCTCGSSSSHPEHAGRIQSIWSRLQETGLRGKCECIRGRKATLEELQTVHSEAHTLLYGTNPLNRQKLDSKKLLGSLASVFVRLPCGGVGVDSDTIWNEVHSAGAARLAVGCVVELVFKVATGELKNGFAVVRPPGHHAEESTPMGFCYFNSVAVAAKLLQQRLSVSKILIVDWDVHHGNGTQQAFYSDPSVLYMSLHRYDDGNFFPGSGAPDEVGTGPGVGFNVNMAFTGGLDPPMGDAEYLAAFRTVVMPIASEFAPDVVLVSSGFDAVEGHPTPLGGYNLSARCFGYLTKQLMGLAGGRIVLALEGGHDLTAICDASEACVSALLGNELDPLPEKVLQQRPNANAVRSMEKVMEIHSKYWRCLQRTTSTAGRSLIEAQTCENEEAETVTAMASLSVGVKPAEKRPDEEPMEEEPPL
The experiment in a line: HDAC4 biochemical assay, class IIa-specific substrate. The note with it: read-out: HDAC Isoform IC50 (nM) 4. The procedure, abridged:
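Two-step fluorogenic read-out: deacetylated BOC-Lys(trifluoroacetyl)-AMC (50 μM) was digested by developer and measured at Ex/Em 360/460. Deacetylation by 0.004 ng/ul HDAC4 (aa 627-1085, N-terminal GST) ran 30 min at room temperature, pH 8.0 Tris buffer, 1 mg/mL BSA, 1% DMSO.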

A further assay has as its target T3, Human HDAC5 (Homo sapiens, UniProt Q9UQL6).
T3 construct: full length with C-terminal His tag, MW=51.1 kDa; His (C); host or cells: baculovirus expression system
The experiment in a line: HDAC5 biochemical assay, class IIa-specific substrate. The note with it: read-out: HDAC Isoform IC50 (nM) 5. The method, boiled down:
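Two-step fluorogenic read-out: deacetylated trifluoroacetyl-lysine AMC substrate (50 μM) digested by developer, measured at Ex/Em 360/460. Deacetylation step: 0.05 ng/ul His-tagged full-length baculoviral enzyme with compound, 30 min, room temperature, pH 8.0 Tris with 1 mg/mL BSA and 1% DMSO.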

The next assay concerns the target T4, Recombinant human HDAC6 (Homo sapiens, UniProt Q9UBN7).
T4 construct: full length, MW=159 kDa; GST (N); host or cells: Sf9 insect cells (baculovirus)
T4 sequence (Q9UBN7 1-1215): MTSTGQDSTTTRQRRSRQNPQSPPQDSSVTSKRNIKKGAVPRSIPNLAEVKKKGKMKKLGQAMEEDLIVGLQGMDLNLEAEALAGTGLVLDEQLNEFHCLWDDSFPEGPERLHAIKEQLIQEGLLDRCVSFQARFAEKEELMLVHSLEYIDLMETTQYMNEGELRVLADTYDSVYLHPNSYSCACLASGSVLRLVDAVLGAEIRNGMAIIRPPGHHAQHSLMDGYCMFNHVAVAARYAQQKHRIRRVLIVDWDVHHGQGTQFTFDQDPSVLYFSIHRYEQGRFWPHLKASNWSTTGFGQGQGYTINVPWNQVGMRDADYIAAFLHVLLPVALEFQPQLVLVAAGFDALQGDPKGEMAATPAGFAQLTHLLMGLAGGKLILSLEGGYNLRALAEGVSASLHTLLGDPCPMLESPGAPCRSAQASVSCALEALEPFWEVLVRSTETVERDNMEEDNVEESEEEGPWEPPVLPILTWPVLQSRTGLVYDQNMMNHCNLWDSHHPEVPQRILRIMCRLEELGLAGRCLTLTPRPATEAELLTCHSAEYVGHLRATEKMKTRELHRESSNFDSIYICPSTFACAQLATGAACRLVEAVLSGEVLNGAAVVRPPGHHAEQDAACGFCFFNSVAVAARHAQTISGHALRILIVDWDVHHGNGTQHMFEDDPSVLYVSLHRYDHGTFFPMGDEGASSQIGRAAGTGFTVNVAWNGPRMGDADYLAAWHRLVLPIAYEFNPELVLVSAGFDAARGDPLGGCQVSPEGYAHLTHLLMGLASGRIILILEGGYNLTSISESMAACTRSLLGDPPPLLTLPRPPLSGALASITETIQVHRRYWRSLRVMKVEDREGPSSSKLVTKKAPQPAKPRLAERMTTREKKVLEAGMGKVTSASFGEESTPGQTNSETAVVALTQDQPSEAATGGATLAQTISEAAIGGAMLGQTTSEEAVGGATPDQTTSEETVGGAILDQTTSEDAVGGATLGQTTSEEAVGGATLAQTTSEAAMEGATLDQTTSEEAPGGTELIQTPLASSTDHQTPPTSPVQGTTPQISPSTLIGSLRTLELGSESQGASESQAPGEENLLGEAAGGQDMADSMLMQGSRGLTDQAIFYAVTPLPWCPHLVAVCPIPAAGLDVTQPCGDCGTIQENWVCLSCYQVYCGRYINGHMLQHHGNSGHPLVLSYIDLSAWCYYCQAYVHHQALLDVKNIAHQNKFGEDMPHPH
The experiment in a line: HDAC6 biochemical assay, AMC-labeled peptide substrate. The note with it: HDAC6; read-out: HDAC Isoform IC50 (nM) 6. The method, boiled down: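 Two-step fluorogenic read-out: enzyme deacetylates 50 μM RHKK(Ac)AMC for 1 h at 30° C in pH 8.0 Tris buffer with BSA and 1% DMSO, then developer cleavage gives signal at Ex 360/Em 460. Enzyme: 0.3 ng/ul recombinant full-length human HDAC6, GST-tagged, Sf9-expressed.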

The target of a further assay is T5, Human HDAC7 (Homo sapiens, UniProt Q8WUI4).
T5 construct: (a.a. 518-end) with N-terminal GST tag; GST (N); host or cells: baculovirus expression system
T5 sequence (Q8WUI4 518-952 limits assumed): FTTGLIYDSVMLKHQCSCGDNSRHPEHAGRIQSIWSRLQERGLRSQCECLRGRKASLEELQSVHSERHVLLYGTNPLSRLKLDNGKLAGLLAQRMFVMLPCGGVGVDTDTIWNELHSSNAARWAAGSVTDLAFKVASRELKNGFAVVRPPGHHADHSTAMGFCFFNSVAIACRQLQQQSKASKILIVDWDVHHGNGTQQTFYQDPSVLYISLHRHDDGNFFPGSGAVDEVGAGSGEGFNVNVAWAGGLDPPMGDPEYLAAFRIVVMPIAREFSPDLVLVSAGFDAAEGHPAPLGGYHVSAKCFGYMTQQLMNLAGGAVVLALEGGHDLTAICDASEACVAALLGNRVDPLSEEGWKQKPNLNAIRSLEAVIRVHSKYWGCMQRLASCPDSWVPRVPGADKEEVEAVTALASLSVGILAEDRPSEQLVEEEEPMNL
The experiment in a line: HDAC7 biochemical assay, class IIa-specific substrate. To be noted: read-out: HDAC Isoform IC50 (nM) 7. The procedure, abridged:
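Two-step fluorogenic readout: class IIa-selective trifluoroacetyl-lysine AMC substrate (50 μM) deacetylated by N-terminal GST-HDAC7 fragment (0.001 ng/ul), then digested by developer, Ex/Em 360/460. Reaction: 30 min, room temperature, Tris-HCl pH 8.0, NaCl/KCl/MgCl2, 1 mg/mL BSA, 1% DMSO.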

For another assay, the target named is T6, Human HDAC9 (Homo sapiens, UniProt Q9UKV0).
T6 construct: amino acids 604-1066 with C-terminal His tag; His (C); host or cells: baculovirus expression system
T6 sequence (Q9UKV0 604-1066 isoform Q9UKV0-5): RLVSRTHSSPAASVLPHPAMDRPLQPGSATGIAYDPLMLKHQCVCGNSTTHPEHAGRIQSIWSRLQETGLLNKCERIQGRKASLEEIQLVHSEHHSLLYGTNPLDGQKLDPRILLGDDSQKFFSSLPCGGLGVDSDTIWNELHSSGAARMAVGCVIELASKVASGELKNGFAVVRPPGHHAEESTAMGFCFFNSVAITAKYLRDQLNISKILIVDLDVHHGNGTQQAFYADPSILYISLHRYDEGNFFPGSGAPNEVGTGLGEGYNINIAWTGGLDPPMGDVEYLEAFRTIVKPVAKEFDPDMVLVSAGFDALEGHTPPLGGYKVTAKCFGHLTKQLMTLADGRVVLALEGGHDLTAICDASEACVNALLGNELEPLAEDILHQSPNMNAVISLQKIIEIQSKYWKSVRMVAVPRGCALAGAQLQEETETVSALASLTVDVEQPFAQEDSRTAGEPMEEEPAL
The experiment in a line: HDAC9 biochemical assay, class IIa-specific substrate. To be noted: read-out: HDAC Isoform IC50 (nM) 9. The procedure, abridged: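 HDAC9 residues 604-1066 (C-terminal His tag, baculovirus-expressed) at 0.06 ng/ul with 50 μM class IIa substrate Boc-Lys(trifluoroacetyl)-AMC in Tris-HCl pH 8.0 buffer with BSA and 1% DMSO. 30 min at room temperature, then developer added; fluorescence read at 360/460 nm Ex/Em.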

T1 sequence (Q13547 whole entry): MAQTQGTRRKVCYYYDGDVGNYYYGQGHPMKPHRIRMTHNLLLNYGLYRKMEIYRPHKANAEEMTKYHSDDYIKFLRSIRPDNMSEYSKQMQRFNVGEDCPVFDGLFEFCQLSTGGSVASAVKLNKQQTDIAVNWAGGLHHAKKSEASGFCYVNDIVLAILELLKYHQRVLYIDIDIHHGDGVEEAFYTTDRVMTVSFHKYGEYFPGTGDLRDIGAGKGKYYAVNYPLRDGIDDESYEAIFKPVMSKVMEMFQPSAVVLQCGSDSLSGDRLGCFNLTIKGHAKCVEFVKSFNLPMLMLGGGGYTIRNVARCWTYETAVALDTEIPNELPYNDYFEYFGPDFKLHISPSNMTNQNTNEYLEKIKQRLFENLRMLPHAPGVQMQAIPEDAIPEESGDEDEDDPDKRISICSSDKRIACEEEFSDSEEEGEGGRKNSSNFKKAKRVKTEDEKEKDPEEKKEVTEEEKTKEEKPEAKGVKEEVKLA
T3 sequence (Q9UQL6 656-1122 limits assumed): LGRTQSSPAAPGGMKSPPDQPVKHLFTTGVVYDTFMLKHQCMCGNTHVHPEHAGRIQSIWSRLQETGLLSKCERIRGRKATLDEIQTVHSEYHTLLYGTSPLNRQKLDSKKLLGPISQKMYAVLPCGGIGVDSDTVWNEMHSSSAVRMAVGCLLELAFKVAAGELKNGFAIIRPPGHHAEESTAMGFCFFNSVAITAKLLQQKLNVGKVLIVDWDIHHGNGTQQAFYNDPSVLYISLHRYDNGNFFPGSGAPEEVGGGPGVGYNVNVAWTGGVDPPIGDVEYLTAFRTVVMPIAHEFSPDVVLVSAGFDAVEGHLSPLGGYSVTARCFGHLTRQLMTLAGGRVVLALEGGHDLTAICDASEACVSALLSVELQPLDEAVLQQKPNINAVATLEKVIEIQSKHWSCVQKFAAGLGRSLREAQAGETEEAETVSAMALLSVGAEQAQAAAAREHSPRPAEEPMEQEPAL

As usually defined, the IC50 is the midpoint of a concentration-inhibition curve. In the case of `FC(F)(F)c1nc(-c2ccc(CN(c3cnccn3)c3cc(N4CCOCC4)ncn3)s2)no1` [Example CL, 6-(Morpholin-4-yl)-N-(pyrazin-2-yl)-N-({5-[5-(trifluoromethyl)-1,2,4-oxadiazol-3-yl]thiophen-2-yl}methyl)pyrimidin-4-amine], the IC50 on Human HDAC1 was above 10000 nM; at Human HDAC4, at most 10000 nM; on Human HDAC5, at most 10000 nM; at Recombinant human HDAC6, at most 10000 nM; at Human HDAC7, at most 10000 nM; at Human HDAC9, at most 10000 nM.

For the compound `FC(F)(F)c1nc(-c2ccc(CN(c3cnccn3)c3ncccc3C3CC3)s2)no1` [Example AM, N-(3-Cyclopropylpyridin-2-yl)-N-({5-[5-(trifluoromethyl)-1,2,4-oxadiazol-3-yl]thiophen-2-yl}methyl)pyrazin-2-amine], the IC50 was above 10000 nM at Human HDAC1; at most 500 nM on Human HDAC4; at most 500 nM on Human HDAC5; at most 10000 nM at Recombinant human HDAC6; at most 1000 nM at Human HDAC7; at most 10000 nM at Human HDAC9.

Regarding `Cc1ncncc1N(Cc1ccc(-c2noc(C(F)(F)F)n2)s1)c1cnccn1` [Example CX, 4-Methyl-N-(pyrazin-2-yl)-N-({5-[5-(trifluoromethyl)-1,2,4-oxadiazol-3-yl]thiophen-2-yl}methyl)pyrimidin-5-amine], the IC50 is above 10000 nM at Human HDAC1; at most 500 nM at Human HDAC4; at most 500 nM on Human HDAC5; at most 10000 nM on Recombinant human HDAC6; at most 500 nM at Human HDAC7; at most 1000 nM on Human HDAC9.

Take `Cn1cc(-c2ccc(N(Cc3ccc(-c4noc(C(F)(F)F)n4)s3)c3cnccn3)nn2)cn1` [Example DO, 6-(1-Methyl-1H-pyrazol-4-yl)-N-(pyrazin-2-yl)-N-({5-[5-(trifluoromethyl)-1,2,4-oxadiazol-3-yl]thiophen-2-yl}methyl)pyridazin-3-amine]: the IC50 on Human HDAC1 is at most 10000 nM; on Human HDAC4, at most 1000 nM; at Human HDAC5, at most 1000 nM; on Recombinant human HDAC6 it was at most 500 nM; on Human HDAC7 it was at most 1000 nM; on Human HDAC9, at most 10000 nM.

For `CC(c1ccc(-c2noc(C(F)(F)F)n2)s1)N(c1cnccn1)c1cnccn1` (stereo not drawn) [Example BB, N-(Pyrazin-2-yl)-N-(1-{5-[5-(trifluoromethyl)-1,2,4-oxadiazol-3-yl]thiophen-2-yl}ethyl)pyrazin-2-amine], the IC50 was above 10000 nM on Human HDAC1; at most 500 nM on Human HDAC4; at most 500 nM on Human HDAC5; at most 10000 nM at Recombinant human HDAC6; at most 1000 nM on Human HDAC7; at most 10000 nM on Human HDAC9.

With `FC(F)(F)c1nccc(N(Cc2ccc(-c3noc(C(F)(F)F)n3)s2)c2cnccn2)n1` [Example CD, N-(Pyrazin-2-yl)-2-(trifluoromethyl)-N-({5-[5-(trifluoromethyl)-1,2,4-oxadiazol-3-yl]thiophen-2-yl}methyl)pyrimidin-4-amine], the IC50 on Human HDAC1 was above 10000 nM; on Human HDAC4 it was at most 1000 nM; on Human HDAC5, at most 1000 nM; at Recombinant human HDAC6 it was at most 10000 nM; on Human HDAC7 it was at most 1000 nM; at Human HDAC9, at most 1000 nM.

As for `FC(F)(F)c1nc(-c2ccc(CN(c3cnccn3)c3ccc(N4CCOCC4)nn3)s2)no1` [Example DJ, 6-(Morpholin-4-yl)-N-(pyrazin-2-yl)-N-({5-[5-(trifluoromethyl)-1,2,4-oxadiazol-3-yl]thiophen-2-yl}methyl)pyridazin-3-amine], the IC50 on Human HDAC1 was above 10000 nM; on Human HDAC4, at most 10000 nM; at Human HDAC5 it was at most 1000 nM; on Recombinant human HDAC6, at most 500 nM; at Human HDAC7 it was at most 10000 nM; on Human HDAC9, at most 10000 nM.

As to `FC(F)(F)c1nc(-c2ccc(CN(c3cnccn3)c3cc4nccnc4cn3)s2)no1` [Example AF, N-{Pyrido[3,4-b]pyrazin-7-yl}-N-({5-[5-(trifluoromethyl)-1,2,4-oxadiazol-3-yl]thiophen-2-yl}methyl)pyrazin-2-amine], the IC50 on Human HDAC1 is above 10000 nM; on Human HDAC4, at most 10000 nM; on Human HDAC5 it was at most 1000 nM; at Recombinant human HDAC6, at most 1000 nM; on Human HDAC7 it was at most 10000 nM; at Human HDAC9, at most 10000 nM.

For the compound `FC(F)(F)c1nc(-c2ccc(CN(c3cnccn3)c3cnc4[nH]ccc4n3)s2)no1` [Example BN, N-{5H-Pyrrolo[2,3-b]pyrazin-2-yl}-N-({5-[5-(trifluoromethyl)-1,2,4-oxadiazol-3-yl]thiophen-2-yl}methyl)pyrazin-2-amine], the half-inhibitory concentration (IC50) was above 10000 nM at Human HDAC1; at most 500 nM on Human HDAC4; at most 500 nM at Human HDAC5; at most 1000 nM at Recombinant human HDAC6; at most 500 nM on Human HDAC7; at most 500 nM on Human HDAC9.

Consider `CN(C)C(=O)c1cncc(N(Cc2ccc(-c3noc(C(F)(F)F)n3)s2)c2cnccn2)n1` [Example BS, N,N-Dimethyl-6-[(pyrazin-2-yl)({5-[5-(trifluoromethyl)-1,2,4-oxadiazol-3-yl]thiophen-2-yl}methyl)amino]pyrazine-2-carboxamide], for which the IC50 on Human HDAC1 is above 10000 nM; at Human HDAC4, at most 10000 nM; at Human HDAC5 it was at most 10000 nM; on Recombinant human HDAC6 it was at most 10000 nM; at Human HDAC7 it was at most 10000 nM; at Human HDAC9, at most 10000 nM.
